What was measured:
[1] = target: T1, Heat shock protein HSP 90-alpha (Homo sapiens, UniProt P07900); assay: Inhibition of recombinant GST-tagged HSP90alpha NTD (9 to 236 residues) (unknown origin) ATPase activity expressed in Escherichia coli BL21 (DE3)
NCI-H1299 [2] = assay: Antiproliferative activity against human NCI-H1299 cells assessed as inhibition of cell growth; type: functional, cell-based
[3] = Antiproliferative activity against human LNCap-LN3 cells assessed as inhibition of cell growth incubated for 24 hrs by CellTiter-glo luminescence assay; type: functional, cell-based; details: LNCaP-LN3, 24 h
[4] = target: T1, Heat shock protein HSP 90-alpha; assay: Binding affinity to recombinant HSP90alpha (unknown origin) assessed as dissociation constant incubated for 30 mins by intrinsic fluorescence based spectroscopic analysis
[5] = target: Heat shock protein HSP 90-beta (Homo sapiens, UniProt P08238); assay: Binding affinity to recombinant HSP90beta (unknown origin) assessed as dissociation constant incubated for 30 mins by intrinsic fluorescence based spectroscopic analysis
UMSCC22B = assay: Antiproliferative activity against human UMSCC22B cells assessed as inhibition of orosphere formation incubated for 10 to 14 days by light microscopic analysis; type: functional, cell-based
NCI-H1299 [6] = assay: Antiproliferative activity against human NCI-H1299 cells assessed as inhibition of cell growth incubated for 3 days by MTT assay; type: functional, cell-based; details: NCI-H1299, 72 h
HCT-116 = assay: Antiproliferative activity against human HCT-116 cells assessed as reduction in cell viability incubated for 72 hrs by MTT assay; type: functional, cell-based; details: HCT-116, 72 h
SK-BR-3 [7] = assay: Antiproliferative activity against human SK-BR-3 cells assessed as inhibition of cell proliferation incubated for 72 hrs by MTS proliferation assay; type: functional, cell-based; details: SK-BR-3, 72 h
MDA-MB-231 = assay: Antiproliferative activity against human MDA-MB-231 cells assessed as inhibition of cell growth incubated for 48 to 72 hrs by MTS assay; type: functional, cell-based
UACC-62 = assay: Antiproliferative activity against human UACC-62 cells assessed as inhibition of cell growth; type: functional
Jurkat = assay: Antiproliferative activity against human jurkat cells assessed as reduction in cell viability incubated for 48 hrs by MTT assay; type: functional, cell-based
MCF7 [8] = assay: Antiproliferative activity against human MCF7 cells assessed as inhibition of cell proliferation incubated for 72 hrs by MTS assay; type: functional, cell-based; details: MCF7, 72 h
[9] = target: T1, Heat shock protein HSP 90-alpha; assay: Binding affinity to human recombinant HSP90alpha C-terminal domain (563 to 732 residues) expressed in Escherichia coli BL21(DE3) cells assessed as dissociation constant incubated for 15 mins by microscale thermophoresis analysis
K562 = assay: Antiproliferative activity against BCR-ABL1 positive human K562 cells assessed as inhibition of cell growth incubated for 72 hrs by ATP-based celltiter Glo assay; type: functional; details: K562, 72 h
SK-BR-3 [10] = assay: Antiproliferative activity against human SK-BR-3 cells assessed as inhibition of cell proliferation; type: functional, cell-based
NCI-H1299 [11] = assay: Antiproliferative activity against human NCI-H1299 cells assessed as reduction in cell viability incubated for 2 to 3 days by MTT assay; type: functional, cell-based
Heat shock protein HSP90 = Heat shock protein HSP90 (Homo sapiens, UniProt P07900+P08238); assay: Binding affinity to NT-647 labelled recombinant HSP90 (unknown origin) C-terminal domain assessed as dissociation constant by microscale thermophoresis analysis; type: protein assay
[12] = target: T1, Heat shock protein HSP 90-alpha; assay: Binding affinity to recombinant human HSP90alpha assessed as dissociation constant measured for 300 secs by SPR analysis
MCF7 [13] = assay: Antiproliferative activity against human MCF7 cells assessed as inhibition of cell proliferation by MTS assay; type: functional, cell-based
SK-N-MC = assay: Antiproliferative activity against human SK-N-MC cells assessed as inhibition of cell proliferation by MTS assay; type: functional, cell-based
NCI-H1299 [14] = assay: Antiproliferative activity against human NCI-H1299 cells assessed as reduction in cell viability incubated for 5 days by MTT assay; type: functional, cell-based; details: NCI-H1299, 120 h

Chain of Heat shock protein HSP 90-beta (P08238 whole entry): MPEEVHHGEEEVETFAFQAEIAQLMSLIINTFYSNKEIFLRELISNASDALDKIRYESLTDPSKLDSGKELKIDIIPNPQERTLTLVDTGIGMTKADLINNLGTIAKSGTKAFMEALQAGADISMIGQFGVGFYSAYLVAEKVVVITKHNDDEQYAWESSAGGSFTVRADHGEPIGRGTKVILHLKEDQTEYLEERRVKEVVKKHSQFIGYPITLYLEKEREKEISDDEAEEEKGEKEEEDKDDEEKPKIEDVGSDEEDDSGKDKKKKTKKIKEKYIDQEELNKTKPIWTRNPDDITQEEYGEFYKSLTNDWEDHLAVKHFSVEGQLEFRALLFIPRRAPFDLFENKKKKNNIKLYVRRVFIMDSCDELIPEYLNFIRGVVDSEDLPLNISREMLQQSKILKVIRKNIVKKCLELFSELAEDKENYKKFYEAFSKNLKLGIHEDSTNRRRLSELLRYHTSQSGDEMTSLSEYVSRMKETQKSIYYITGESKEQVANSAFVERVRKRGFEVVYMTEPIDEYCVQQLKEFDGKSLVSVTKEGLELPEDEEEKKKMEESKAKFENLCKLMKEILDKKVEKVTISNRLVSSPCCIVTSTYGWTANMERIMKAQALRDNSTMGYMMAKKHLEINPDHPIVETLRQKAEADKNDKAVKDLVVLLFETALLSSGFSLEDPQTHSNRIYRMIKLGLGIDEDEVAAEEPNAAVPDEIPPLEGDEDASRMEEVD

For `CC(C)(C)CC(C)(C)NCC(O)COc1ccc(C(C)(C)c2ccc(OCC(O)CNC(C)(C)CC(C)(C)C)cc2)cc1` (stereo not given), the IC50 [1] was 119000 nM.
Compound `COc1ccc(CC(=O)c2ccc3c(c2OC)C=CC(C)(C)O3)cc1OC` has an IC50 (NCI-H1299 [2]) of 140 nM.
Work on `Cc1c(OCCC2CCCCN2)ccc2cc(NC(=O)Nc3ccc(Cl)cc3)c(=O)oc12` (stereo not given) yielded an IC50 [3] of 2000 nM, a Kd [4] of 191000 nM and a Kd [5] of 726000 nM.
`COc1cccc(-c2cccc(NC(=O)Nc3cc4ccc(OC5CCN(C)CC5)c(C)c4oc3=O)c2)c1` showed an IC50 (UMSCC22B) of 1000 nM.
`COc1cc2nccc(C(OC(=O)C3CC3)c3ccc4c(c3OC)C=CC(C)(C)O4)c2cc1OC` (stereo not given) showed an IC50 (NCI-H1299 [2]; Homo sapiens, NCI-H1299, read-out: IC50) of 1000 nM.
In the case of `COc1cc2nccc(C(OC(C)=O)c3ccc4c(c3OC)C=CC(C)(C)O4)c2cc1OC` (stereo not given), the IC50 (NCI-H1299 [6]) is reported as 1000 nM.
With `COc1ccc2c(c1OC)O[C@]13C(=O)N4O[C@H]5[C@H](O)C=C[C@@H](Cl)[C@@]5(O)C[C@@]4(SS[C@H]21)C(=O)N3C` the IC50 (HCT-116) was 330 nM.
For `COc1cc(NC(=O)c2ccc3c(c2OC)C=CC(C)(C)O3)ccc1OCCC1CCCCN1` (stereo not given), the IC50 (SK-BR-3 [7]) was 2000 nM.
`COc1cc2nccc(C(OC(=O)C3CC3)c3ccc4c(c3)C=CC(C)(C)O4)c2cc1OC` (stereo not given) showed an IC50 (MDA-MB-231) of 5000 nM.
With `COc1cccc(-c2cc(NC(=O)Nc3cc4ccc(OC5CCN(C)CC5)c(C)c4oc3=O)ccc2C)c1` the IC50 (UACC-62) was 360 nM.
`CCOC(=O)C1=C(C)N(c2ccccc2)C(=O)NC1c1cc(O)ccc1Br` (stereo not given) gave an IC50 (Jurkat) of 15200 nM.
In the case of `Cc1ccc(Cl)c(OCC2(O)CCN(Cc3ccc(OCCN4CCOCC4)cc3)CC2)c1`, the IC50 (MCF7 [8]) is reported as 31800 nM.
In the case of `CCC(C)n1c(C(=O)NC2CN=C(C(=O)NC)N(CC(C)C)C2=O)ncc(NC(=O)c2ncc(NC(=O)c3ccccc3)c(=O)n2Cc2ccc(OC)cc2)c1=O` (stereo not given), the Kd [9] is reported as 3420 nM and the IC50 (K562) is reported as 1300 nM.
Work on `Cc1ccc(Cn2cc(C(=O)Nc3ccc(/C=C/c4ccc(OC5CCN(C)CC5)cc4)cc3)nn2)cc1` yielded an IC50 (SK-BR-3 [10]) of 99 nM.
For `Cc1c(OC2CCN(C)CC2)ccc2cc(NC(=S)Nc3cccc(Cl)c3)c(=O)oc12`, the IC50 (UMSCC22B) was 20000 nM.
In the case of `COc1cc(NC(=O)c2ccc3c(c2OC)C=CC(C)(C)O3)ccc1OCCc1ccncc1`, the IC50 (NCI-H1299 [11]) is reported as 230 nM.
Compound `CC[C@@H](C)[C@@H](ONC(=O)[C@H](ONC(=O)[C@@H](Cc1ccccc1)ONC(=O)[C@@H](Cc1ccccc1)ONC(=O)OCc1ccccc1)[C@H](C)CC)C(=O)NO[C@H](CC(C)C)C(=O)NO[C@H](CC(C)C)C(N)=O` has a Kd (Heat shock protein HSP90) of 27400 nM.
For `COc1cccc(-c2cc(C(=O)Nc3ccc(/C=C/c4ccc(OC5CCN(C)CC5)cc4)cc3)ccc2OC)c1`, the IC50 (SK-BR-3 [10]) was 680 nM.
For `COc1ccc(NCC(=O)Nc2ncc(Cc3ccc(Cl)c(Cl)c3)s2)cc1`, the Kd [12] was 20.9 nM.
Compound `Nc1c(C(=O)c2ccc(-c3ccc(Br)cc3)cc2)sc2nc3c(c(-c4ccccc4)c12)CNCC3` has an IC50 (MCF7 [13]) of 1400 nM and an IC50 (SK-N-MC) of 2800 nM.
With `COc1cc(NC(=O)c2ccc3c(c2OC)C=CC(C)(C)O3)ccc1OCCc1cccnc1` the EC50 (NCI-H1299 [14]) was 230 nM.
